Test results reported in patent US4058520A, “Aminoalkylthiopyridazine compounds” (The Dow Chemical Company, priority 1976, dated 1977).
pIC50: −log10 of the molar value. Read-outs that look alike come from different tables or passages of the source.

Legend:
[1] = system: ADP induced aggregation of blood platelets (rat platelet rich plasma); experiment: inhibition of ADP induced platelet aggregation in vitro (rat platelet rich plasma, change in optical density; Born); assay type: cell-based; conditions: for pIC50: 10 min, read-out: IC50 ADP (concentration at which ADP induced platelet aggregation is inhibited by 50%)
Protocol: Platelet aggregation was initiated in vitro by 0.125 to 0.25 mg/ml of ADP. Rat blood was collected into 3.0% trisodium citrate solution (1:10) by cardiac puncture under methoxyfurane anesthesia. The blood was centrifuged at 120 g for 10 minutes at room temperature and the supernatant platelet rich plasma was removed and diluted with lactated Ringer's solution containing the pyridazine aggregation inhibiting agent (1.0:1.5). Samples of 1.0 ml were pipetted into plastic test tubes and incubated for 10 minutes. Plastic equipment was used for all procedures. The concentration of the pyridazine compound in micromoles inhibiting ADP aggregation by 50% (IC50) was determined using changes in optical density as an indicium of platelet aggregation.
*Concentration in micromoles at which ADP induced platelet aggregation is […]

apple scab = experiment: effectiveness against apple scab; assay type: in vivo; conditions: 400 parts per million
rootknot nematode = experiment: killing and control of rootknot nematode; assay type: in vivo; conditions: 2.4 pounds per 100 cu. ft. of soil
tobacco black root rot = experiment: fungicide, killing and control of tobacco black root rot; assay type: in vivo; conditions: 25 parts per million
[2] = system: platelet aggregation / emboli formed in response to ADP; experiment: protection of mice from ADP challenge (inclined screen); assay type: in vivo; conditions: of ten mice; 60 mgs per kilogram orally; ADP via tail vein one hour after
Protocol: Emboli formed in the vascular system of mice in response to the administration of ADP cause a stroke-like response that prevents mice from staying on an inclined screen. To illustrate the platelet aggregation inhibition effect of the aminoalkylthiopyridazines, ten mice were dosed orally with 60 mgs per kilogram of body weight of the compound 6-chloro-3-(2-diisopropylamino)ethylthio)pyridazine. One hour after compound administration, the mice were challenged with ADP (0.05 M mole/kg) by injection via the tail vein and placed on an inclined screen. The unprotected control mice were unable to maintain their position on the screen.

[3] = rat platelet rich plasma, 0.125 to 0.25 mg/ml of ADP, incubated 10 minutes

| Compound | pIC50 [1, 3] | also measured |
| --- | --- | --- |
| Clc1ccc(SCCN2CCCCC2)nn1 [3-Chloro-6-(2-(1-piperidinyl)ethylthio)pyridazine] | 2.48 |  |
| Clc1ccc(SCCN2CCOCC2)nn1 [3-Chloro-6-(2-(4-morpholinyl)ethylthio)pyridazine] |  | pIC50 ([1]; Rattus norvegicus, Platelet): 2.59; effective in the killing and control of rootknot nematode (rootknot nematode): 90% |
| Clc1ccc(SCCN2CCCCCC2)nn1 [3-Chloro-6-(2-(hexamethyleneimino)ethylthio)pyridazine] | 2.61 |  |
| Clc1ccc(SCCCN2CCOCC2)nn1 [3-Chloro-6-(3-(4-morpholinyl)propylthio)pyridazine] | 1.98 |  |

More lines, main results first:

| pIC50 [1, 3] | Compound | also measured |
| --- | --- | --- |
| 1.86 | c1cc(SCCN2CCOCC2)nnc1SCCN1CCOCC1 [3,6-Bis(2-(4-morpholinyl)ethylthio)pyridazine] | effective against apple scab (apple scab): 90% |
| 2.43 | CCN(CC)CCCSc1ccc(Cl)nn1 [3-Chloro-6-(3-(diethylamino)propylthio)pyridazine] | effective as a fungicide in the killing and control of tobacco black root rot (tobacco black root rot): 100% |
| 2.62 | CN(C)CCCSc1ccc(Cl)nn1 [3-Chloro-6-(3-dimethylamino)propylthio)pyridazinium methane sulfonate] |  |
| 3.85 | CC(C)N(CCSc1ccc(Cl)nn1)C(C)C [6-Chloro-3-(2-(diisopropylamino)ethylthio)pyridazine] | platelet aggregation inhibiting activity (in words) ([1]; Table I data): highly effective; mice protected from the ADP challenge and remaining on the screen [2]: 10 mice |
